Columns and labels:
[1] = tested on: gastric acid secretion; experiment: Inhibitory effect on gastric acid secretion, perfused stomach preparation of anesthetized rat (histamine stimulated); assay type: in vivo, Wistar strain rats; details: intravenous; for ED100: Rattus norvegicus, cumulative, histamine 30 μg/kg/min, read-out: Dose for complete inhibition; for Duration: time from complete inhibition until pH of perfusate became 4
Description: (i) Perfused stomach preparation of anesthetized rat [according to M. N. Ghosh and H. O. Schild: Brit. J. Pharmacol. 13, 54 (1958)]
Wistar strain rats (male, 200 to 250 g) starved for 18 hours were anesthetized with urethane and then subjected to laparotomy, after which the forestomach region of the stomach of each rat was incised. The whole interior of the stomach was sufficiently washed with physiological saline, and the cut edges were sutured. A silicon tube was inserted into the stomach to a length of about 5 mm from the duodenum side and fixed. Subsequently, the stomach was perfused with physiological saline adjusted to a pH of about 10 with an aqueous sodium hydroxide solution at a constant rate (1 ml/min) through an oral sonde, and the change in pH of the perfusate which had flowed out through the silicone tube was continuously recorded. During the perfusion, histamine (30 μg/kg/min) was continuously injected, as an agent for stimulating gastric acid secretion, through the femoral vein at a rate of 0.3 ml/min. Each drug was intravenously administered when the acid secretion became almost constant (pH 3.3±0.2), and cumulatively administered when the inhibition of acid secretion at each dose reached a plateau.
The number of experiments was three for each dose.

[2] = tested on: gastric acid secretion; experiment: Inhibitory effect on gastric acid secretion, pylorus ligation method (histamine); assay type: in vivo, Wistar strain rats; details: Rattus norvegicus, oral, histamine 25 mg/kg s.c., read-out: Inhibition percentage (gastric acid secretion)
Description: Five to six Wistar strain rats (male, 190 to 230 g) per group were starved for 35 hours, after which each drug was orally administered, and after 2 hours, the pylorus of each rat was ligated under ether anesthesia. […] After 3 hours, each rat was killed, after which the cardiac portion was ligated, and the stomach was removed. After 1 ml of distilled water was injected into the stomach, the gastric juice was collected by centrifugation and its volume was measured. The acidity of the gastric juice was measured by titrating 1 ml of the gastric juice with a 0.1N aqueous sodium hydroxide solution, taking pH 7.0 as the end-point. Physiological saline was administered to a control group.
The inhibition percentage of gastric acid secretion was determined from the following equation: [formula]

Compound | ED100 [1] | Duration [1] | inhibition in vivo at 1 mg/kg [2] | inhibition in vivo at 3 mg/kg [2]
CCc1cccc(C(O)CNC(=C[N+](=O)[O-])NCCSCc2cc(C)c(CN(C)C)s2)c1 (centres unmarked) [compound 31, N-{2-[[5-(dimethylamino)methyl-4-methyl-2-thienyl]methylthio]ethyl}-N'-[2-(3-ethylphenyl)-2-hydroxyethyl]-2-nitro-1,1-ethenediamine] | 0.3 mg/kg | 226 min |  | 
O=[N+]([O-])C=C(NCCCOc1cccc(CN2CCCCC2)c1)NCC(O)c1ccc(F)c(F)c1 (centres unmarked) [compound 30, N-[2-(3,4-difluorophenyl)-2-hydroxyethyl]-2-nitro-N'-[3-(3-piperidinomethylphenoxy)propyl]1,1-ethenediamine] | 0.15 mg/kg | > 240 min |  | 
CSc1ccc(C(O)CNC(=C[N+](=O)[O-])NCCSCc2ccc(CN(C)C)o2)cc1 (centres unmarked) [compound 24, N-{2-[[5-(dimethylamino)methyl-2-furyl]methylthio]ethyl}-N'-[2-hydroxy-2-(4-methylthiophenyl)ethyl]-2-nitro-1,1-ethenediamine] | 0.2 mg/kg | > 240 min |  | 
O=[N+]([O-])C=C(NCCCOc1cccc(CN2CCCCC2)c1)NCC(O)c1ccc([N+](=O)[O-])cc1 (centres unmarked) [compound 20, N-[2-hydroxy-2-(4-nitrophenyl)ethyl]-2-nitro-N'-[3-(3-piperidinomethylphenoxy)propyl]-1,1-ethenediamine] |  | > 210 min |  | 
NC(N)=Nc1nc(CSCCNC(=C[N+](=O)[O-])NCC(O)c2ccccc2)cs1 (centres unmarked) [compound 2] | 0.1 mg/kg | > 160 min |  | 
Cc1cc(CSCCNC(=C[N+](=O)[O-])NCC(O)c2ccc(F)cc2F)sc1CN(C)C (centres unmarked) [compound 35, N-{2-[[5-(dimethylamino)methyl-4-methyl-2-thienyl]methylthio]ethyl}-N'-[2-(2,4-difluorophenyl)-2-hydroxyethyl]-2-nitro-1,1-ethenediamine] |  |  | 47% | 
O=[N+]([O-])C=C(NCCCOc1cccc(CN2CCCCC2)c1)NCC(O)c1cccnc1 (centres unmarked) [compound 19, N-[2-hydroxy-2-(3-pyridyl)ethyl]-2-nitro-N'-[3-(3-piperidinomethylphenoxy)propyl]-1,1-ethenediamine] | 0.1 mg/kg | 164 min |  | 
O=[N+]([O-])C=C(NCCCOc1cccc(CN2CCCCC2)c1)NCC(O)c1cccc(F)c1 (centres unmarked) [compound 43, N-[2-(3-fluorophenyl)-2-hydroxyethyl]-2-nitro-N'-[3-(3-piperidinomethylphenoxy)propyl]-1,1-ethenediamine] |  |  | 51% | 
Cc1ccccc1C(O)CNC(=C[N+](=O)[O-])NCCSCc1ccc(CN(C)C)o1 (centres unmarked) [compound 39, N-{2-[[5-(dimethylamino)methyl-2-furyl]methylthio]ethyl}-N'-[2-hydroxy-2-(2-methylphenyl)ethyl]-2-nitro-1,1-ethenediamine] |  |  |  | 90%
Cc1cc(CSCCNC(=C[N+](=O)[O-])NCC(O)c2ccc(O)cc2)sc1CN(C)C (centres unmarked) [compound 10, N-{2-[[5-(dimethylamino)methyl-4-methyl-2-thienyl]methylthio]ethyl}-N'-[2-hydroxy-2-(4-hydroxyphenyl)ethyl]-2-nitro-1,1-ethenediamine] | 0.18 mg/kg | 175 min |  | 
O=[N+]([O-])C=C(NCCCOc1cccc(CN2CCCCC2)c1)NCC(O)c1cccc(C(F)(F)F)c1 (centres unmarked) [compound 27, N-[2-hydroxy-2-(3-trifluoromethylphenyl)ethyl]-2-nitro-N'-[3-(3-piperidinomethylphenoxy)propyl]-1,1-ethenediamine] | 0.3 mg/kg | > 210 min |  | 
COc1ccc(C(O)CNC(=C[N+](=O)[O-])NCCSCc2ccc(CN(C)C)o2)cc1 (centres unmarked) [compound 37, N-{2-[[5-(dimethylamino)methyl-2-furyl]methylthio]ethyl}-N'-[2-hydroxy-2-(4-methoxyphenyl)ethyl]-2-nitro-1,1-ethenediamine] |  |  |  | 77%
COc1cccc(C(O)CNC(=C[N+](=O)[O-])NCCSCc2ccc(CN(C)C)o2)c1 (centres unmarked) [compound 23, N-{2-[[5-(dimethylamino)methyl-2-furyl]methylthio]ethyl}-N'-[2-hydroxy-2-(3-methoxyphenyl)ethyl]-2-nitro-1,1-ethenediamine] | 0.15 mg/kg | 242 min |  | 
CN(C)Cc1ccc(CSCCNC(=C[N+](=O)[O-])NCC(O)c2cccnc2)o1 (centres unmarked) [compound 8, N-{2-[[5-(dimethylamino)methyl-2-furyl]methylthio]ethyl}-N'-[2-hydroxy-2-(3-pyridyl)ethyl]-2-nitro-1,1-ethenediamine] | 0.3 mg/kg | 200 min |  | 
Cc1ccccc1C(O)CNC(=C[N+](=O)[O-])NCCCOc1cccc(CN2CCCCC2)c1 (centres unmarked) [compound 44, N-[2-hydroxy-2-(2-methylphenyl)ethyl]-2-nitro-N'-[3-(3-piperidinomethylphenoxy)propyl]-1,1-ethenediamine] |  |  | 75% | 
CN(C)Cc1ccc(CSCCNC(=C[N+](=O)[O-])NCC(O)c2ccc(F)c(F)c2)o1 (centres unmarked) [compound 25, N-{2-[[5-(dimethylamino)methyl-2-furyl]methylthio]ethyl}-N'-[2-(3,4-difluorophenyl)-2-hydroxyethyl]-2-nitro-1,1-ethenediamine] | 0.1 mg/kg | > 240 min |  | 
N#CNC(=NCC(O)c1ccccc1)NCCSCc1csc(NC(=N)N)n1 (stereo not drawn) [compound 1, N-cyano-N'-{2-[(2-guanidino-4-thiazolyl)methylthio]ethyl}-N"-(β-hydroxyphenethyl)guanidine] | 0.3 mg/kg | > 210 min |  | 
O=[N+]([O-])C=C(NCCCOc1cccc(CN2CCCCC2)c1)NCC(O)c1ccccc1F (centres unmarked) [compound 36, N-[2-(2-fluorophenyl)-2-hydroxyethyl]-2-nitro-N'-[3-(3-piperidinomethylphenoxy)propyl]-1,1-ethenediamine] |  |  |  | 85%
CSc1ccc(C(O)CNC(=C[N+](=O)[O-])NCCCOc2cccc(CN3CCCCC3)c2)cc1 (centres unmarked) [compound 26, N-[2-hydroxy-2-(4-methylthiophenyl)ethyl]-2-nitro-N'-[3-(3-piperidinomethylphenoxy)propyl]-1,1-ethenediamine] | 0.3 mg/kg | > 240 min |  | 
CS(=O)(=O)NC(=NCCCOc1cccc(CN2CCCCC2)c1)NCC(O)c1ccccc1 (stereo not drawn) [compound 21, N-(β-hydroxyphenethyl)-N'-methanesulfonyl-N"-[3-(3-piperidinomethylphenoxy)propyl]guanidine] | 0.1 mg/kg | > 240 min |  | 
Cc1cc(CSCCNC(=C[N+](=O)[O-])NCC(O)c2cccc(Cl)c2)sc1CN(C)C (centres unmarked) [compound 28, N-[2-(3-chlorophenyl)-2-hydroxyethyl]-N'-{2-[[5-(dimethylamino)methyl-4-methyl-2-thienyl]methylthio]ethyl}-2-nitro-1,1-ethenediamine] | 0.1 mg/kg | 205 min |  | 
CN(C)Cc1ccc(CSCCNC(=C[N+](=O)[O-])NC[C@@H](O)c2ccc(O)cc2)o1 [compound 22, N-{2-[[5-(dimethylamino)methyl-2-furyl]methylthio]ethyl}-N'-[S(+)-2-hydroxy-2-(4-hydroxyphenyl)ethyl]-2-nitro-1,1-ethenediamine] | 0.04 mg/kg | 136 min |  | 
Nc1ccc(C(O)CNC(=C[N+](=O)[O-])NCCCOc2cccc(CN3CCCCC3)c2)cc1 (centres unmarked) [compound 45, N-[2-(4-aminophenyl)-2-hydroxyethyl]-2-nitro-N'-[3-(3-piperidinomethylphenoxy)propyl]-1,1-ethenediamine] |  |  | 65% | 
Cc1cc(CSCCNC(=C[N+](=O)[O-])NCC(O)c2c(F)cccc2F)sc1CN(C)C (centres unmarked) [compound 34, N-{2-[[5-(dimethylamino)methyl-4-methyl-2-thienyl]methylthio]ethyl}-N'-[2-(2,6-difluorophenyl)-2-hydroxyethyl]-2-nitro-1,1-ethenediamine] |  |  |  | 71%
CN(C)Cc1ccc(CSCCNC(=C[N+](=O)[O-])NCC(O)c2ccc(F)cc2)o1 (centres unmarked) [compound 38, N-{2-[[5-(dimethylamino)methyl-2-furyl]methylthio]ethyl}-N'-[2-(4-fluorophenyl)-2-hydroxyethyl]-2-nitro-1,1-ethenediamine] |  |  | 41% | 
Cc1cc(CSCCNC(=C[N+](=O)[O-])NCC(O)c2ccc(F)cc2)sc1CN(C)C (centres unmarked) [compound 41, N-{2-[[5-(dimethylamino)methyl-4-methyl-2-thienyl]methylthio]ethyl}-N'-[2-(4-fluorophenyl)-2-hydroxyethyl]-2-nitro-1,1-ethenediamine] |  |  | 65% | 
